In article PMC11173765 (Molecules, 2024):
Values joined by “and” are separate entries in the source; they are usually repeats but may differ in a detail not shown here. Equal entries are not always repeated. Where two headings read alike, the source gives them in different places.

How the values were obtained:
S1R [1] = molecular target: T1, S1R (Rattus norvegicus, UniProt Q9R0C9); assay: S1R radioligand binding assay ([3H]-pentazocine, rat liver homogenates); settings: for SR subtype preference: in words, from S1R and S2R binding affinities; for S2R/S1R: selectivity ratio Ki S2R / Ki S1R
T1 construct: liver homogenates (250 μg/sample) from male Sprague Dawley rats; from tissue; host or cells: liver homogenate of male Sprague Dawley rats
T1 sequence (Q9R0C9 whole entry): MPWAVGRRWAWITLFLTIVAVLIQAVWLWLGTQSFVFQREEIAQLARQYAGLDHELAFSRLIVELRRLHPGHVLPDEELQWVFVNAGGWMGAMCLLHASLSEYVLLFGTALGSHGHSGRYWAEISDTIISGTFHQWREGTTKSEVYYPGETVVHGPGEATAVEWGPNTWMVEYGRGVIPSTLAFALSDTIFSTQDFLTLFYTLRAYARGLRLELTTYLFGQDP
Protocol: (§1) The S1R and S2R receptor affinities of the test compounds were evaluated in competition tests by radiometric assays.
(§2) Liver homogenates were prepared from Sprague Dawley rats (ENVIGO RMS S.R.L., Udine, Italy) for both S1R and S2R receptor binding assays. […] An Ultima Gold MV Scintillation cocktail was sourced from PerkinElmer (Milan, Italy). Other materials were obtained from Merck Life Science S.r.l. (Milan, Italy). For each compound, a10 mM DMSO stock solution was obtained. From these, diluted test concentrations ranging from 10^−5 M to 10^−11 M wereprepared using the respective assay buffer. Both assays involve the use of a tris buffer (50 mM, pH 8) and liver homogenates (250 μg/sample) from male Sprague Dawley rats. […] The final volume was 0.5 mL [54]. A millipore filter apparatus was employed to separate bound and free radioligands via filtration under conditions of reduced pressure through Whatman GF 6 glass fiber filters. Each filter paper was washed three times with 2 mL of ice-cold tris buffer (50 mM for S1R, 10 mM for S2R; pH 8.0), dried at room temperature, and incubated overnight with 2 mL of Ultima Gold MV Scintillation cocktail in pony vials. Bound radioactivity was determined using a liquid scintillation counter Beckman LS 6500 (Beckman Coulter Diagnostic, Brea, CA, USA. […]

S2R [2] = molecular target: T2, S2R (Rattus norvegicus, UniProt Q5U3Y7); assay: S2R radioligand binding assay ([3H]-DTG with (+)-pentazocine mask, rat liver homogenates); settings: for Ki: [3H]-DTG 2 nM, (+)-pentazocine 5 μM mask, rat liver homogenates, mean ± SEM; for S1R/S2R: selectivity ratio Ki S1R / Ki S2R
T2 construct: liver homogenates (250 μg/sample) from male Sprague Dawley rats; from tissue; host or cells: liver homogenate of male Sprague Dawley rats
T2 sequence (Q5U3Y7 1-176): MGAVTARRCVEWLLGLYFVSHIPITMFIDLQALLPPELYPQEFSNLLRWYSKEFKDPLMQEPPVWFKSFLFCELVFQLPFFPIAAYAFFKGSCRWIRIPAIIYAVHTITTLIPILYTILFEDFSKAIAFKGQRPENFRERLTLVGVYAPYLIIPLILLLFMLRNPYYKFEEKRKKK
Protocol: as §1, §2

HUH-7 = assay: Cytotoxicity, resazurin viability assay in HUH-7 cells; type: cell-based; settings: Homo sapiens, 48 hrs treatment, mean ± SEM
Protocol: (§3) Cytotoxic potency was measured using a resazurin assay (see Supplementary Materials). Cells were treated with increasing concentrations of each compound for 48 hours before the cell viability was assessed (Supplementary Materials).
(§4) Dulbecco’s modified Eagle medium (DMEM; Gibco, Life Technologies, Grand Island, NY, USA), supplemented with 10% (v/v) of fetal bovine serum (FBS) and Antibiotic Antimycotic Solution (100 U penicillin, 100 μg/mL streptomycin and 0.25 μg/mL amphotericin B; Sigma-Aldrich, St. Louis, MO, USA), was used to culture the human cell lines SH-SY5Y [55] (neuroblastoma, ATCC, CRL-2266) and HUH-7 [56] (hepatocarcinoma, Japanese Cancer Research Resources Bank, National Institutes of Biomedical Innovation, Health and Nutrition, NIBIOHN, JCRB0403).
(§5) Cell viability was evaluated using resazurin (SERVA Electrophoresis GmbH, Heidelberg, Germany) as previously described.
(§6) Briefly, a resazurin stock solution (440 μM, 10× in phosphate-buffered saline) was diluted in a culture medium to prepare a 44 μM working solution. Cells (5 × 10^3) were seeded in 96-well plates, incubated with 100µl of resazurin working solution, and fluorescence was measured after 1, 2, and 3 hrs. The background fluorescence of killed cells was subtracted, and viability was calculated relative to control cells treated with DMSO solvent (1%). The fluorescence was measured using an Envision 2104 Multi-label Microplate Reader (Perkin Elmer, Boston, MA, USA) and by setting the excitation wavelength at λ = 530 nm and emission wavelength at λ = 590 nm. Measurements were performed at a time of 0 and after 1 hour of incubation. Cytotoxicity was calculated as 100% minus the percentage of viability.
(§7) Statistical analysis was carried out with GraphPad Prism® 6.0 software. An unpaired t-test was used to compare treated and control cells, with p < 0.05 considered statistically significant. The half-maximal inhibitory concentration (IC50) values for cytotoxicity were determined by analyzing dose-response curves using GraphPad Prism software.

SH-SY5Y = assay: Cytotoxicity, resazurin viability assay in SH-SY5Y cells; type: cell-based; settings: Homo sapiens, 48 hrs treatment, mean ± SEM
Protocol: as §3, §4, §5, §6, §7

S1R [3] = settings: read-out: Ki S1R; siramesine literature value; cited from earlier work
S2R [4] = settings: read-out: Ki S2R; siramesine literature value; cited from earlier work
[5] = [3H]-pentazocine 2 nM, rat liver homogenates, mean ± SEM, read-out: Ki S1R

O=C(CCCN1CCN(C2CCCCC2)CC1)c1ccc(F)cc1 [4d, 4-(4-Cyclohexylpiperazin-1-yl)-1-(4-fluorophenyl)butan-1-one]
Ki (S1R [1]; [5]): 18.8 ± 2.91 nM | SR subtype preference (S1R [1]): dual SR affinity | S2R/S1R (S1R [1]): 0.7 | Ki (S2R [2]; read-out: Ki S2R): 13.2 ± 2.78 nM | S1R/S2R (S2R [2]): 1.4 | IC50 (HUH-7): 163000 ± 18000 nM | melting point: 198 to 200 °C

O=C(CCCN1CCN(c2ccc(F)cc2)CC1)c1ccc(F)cc1 [4f, 1-(4-Fluorophenyl)-4-(4-(4-fluorophenyl)piperazin-1-yl)butan-1-one]
Ki (S1R [1]; [5]): 70.2 ± 23.2 nM | SR subtype preference (S1R [1]): preference for S2R | S2R/S1R (S1R [1]): 0.23 | Ki (S2R [2]; read-out: Ki S2R): 16.4 ± 3.17 nM | S1R/S2R (S2R [2]): 4.3 | melting point: 94 to 95 °C

COc1ccc(CN(C)CCCC(=O)c2ccc(F)cc2)cc1OC [4c, 4-((3,4-Dimethoxybenzyl)(methyl)-amino)-1-(4-fluorophenyl)butan-1-one]
Ki (S1R [1]; [5]): 301 ± 74.7 nM | SR subtype preference (S1R [1]): preference for S2R | S2R/S1R (S1R [1]): 0.5 | Ki (S2R [2]; read-out: Ki S2R): 148 ± 10.3 nM | S1R/S2R (S2R [2]): 2.0

O=C(CCCN1CCc2ccccc2C1)c1ccc(F)cc1 [4b, 4-(3,4-Dihydroisoquinolin-2(1H)-yl)-1-(4-fluorophenyl)butan-1-one]
Ki (S1R [1]; [5]): 44.5 ± 7.39 nM | SR subtype preference (S1R [1]): preference for the S1R subtype | S2R/S1R (S1R [1]): 2.8 | Ki (S2R [2]; read-out: Ki S2R): 124 ± 16.3 nM | S1R/S2R (S2R [2]): 0.35 | melting point: 45 to 47 °C

O=C(CCCN1CCCN(Cc2ccccc2)CC1)c1ccc(F)cc1 [4a, 4-(4-Benzyl-1,4-diazepan-1-yl)-1-(4-fluorophenyl)butan-1-one]
Ki (S1R [1]; [5]): 21.6 ± 3.44 nM | SR subtype preference (S1R [1]): preference for the S1R subtype | S2R/S1R (S1R [1]): 10 | Ki (S2R [2]; read-out: Ki S2R): 210 ± 21.4 nM

Fc1ccc(-n2cc(CCCCN3CCC4(CC3)OCc3ccccc34)c3ccccc32)cc1 [SRM, siramesine, reference compound]
S2R/S1R (S1R [1]): 1.2 | S1R/S2R (S2R [2]): 0.8 | IC50 (SH-SY5Y): 5000 ± 1000 nM | IC50 (HUH-7): 2000 ± 250 nM | Ki (S1R [3]): 10.5 ± 2.6 nM | Ki (S2R [4]): 12.6 ± 0.1 nM

O=C(CCCN1CCC(c2ccncc2)CC1)c1ccc(F)cc1 [4i, 1-(4-Fluorophenyl)-4-(4-(pyridin-4-yl)piperidin-1-yl)butan-1-one]
Ki (S1R [1]; [5]): 13.9 ± 3.11 nM | SR subtype preference (S1R [1]): preference for the S1R subtype | S2R/S1R (S1R [1]): 2.03 | Ki (S2R [2]; read-out: Ki S2R): 28.3 ± 3.33 nM | S1R/S2R (S2R [2]): 0.5 | melting point: 102 to 104 °C

COc1cc2c(cc1OC)CN(CCCC(=O)c1ccc(F)cc1)CC2 [4e, 4-(6,7-Dimetoxy-3,4-dihydroisoquinolin-2(1H)-yl)-1-(4-fluorophenyl)butan-1-one]
Ki (S1R [1]; [5]): 1660 ± 118 nM | SR subtype preference (S1R [1]): preference for S2R | S2R/S1R (S1R [1]): 0.004 | Ki (S2R [2]; read-out: Ki S2R): 6.93 ± 0.76 nM | S1R/S2R (S2R [2]): 241 | IC50 (SH-SY5Y): 120000 ± 13000 nM | IC50 (HUH-7): 40000 ± 5000 nM

O=C(CCCN1CCC2(CC1)OCc1ccccc12)c1ccc(F)cc1 [4g, 1-(4-Fluorophenyl)-4-(3H-spiro[isobenzofuran-1,4′-piperidin]-1′-yl)butan-1-one]
Ki (S1R [1]): 6.3 ± 1.4 nM | SR subtype preference (S1R [1]): dual SR affinity | S2R/S1R (S1R [1]): 1.46 | Ki (S2R [2]; Ki S2R): 9.2 nM and 9.23 nM | S1R/S2R (S2R [2]): 0.7 | IC50 (SH-SY5Y): 57000 ± 6000 nM | IC50 (HUH-7): 16000 ± 2000 nM | melting point: 88 to 90 °C

Cc1ccc(CN(C)CCCC(=O)c2ccc(F)cc2)c(C)c1 [4h, 4-((2,4-Dimethylbenzyl)(methyl)amino)-1-(4-fluorophenyl)butan-1-one]
Ki (S1R [1]; [5]): 59.7 ± 7.6 nM | SR subtype preference (S1R [1]): preference for S2R | S2R/S1R (S1R [1]): 0.46 | Ki (S2R [2]; read-out: Ki S2R): 27.7 ± 3.03 nM | S1R/S2R (S2R [2]): 2.1

COc1ccc(CC2CCN(CCCC(=O)c3ccc(F)cc3)CC2)cc1OC [4j, 4-(4-(3,4-Dimetoxybenzyl)piperidin-1-yl)-1-(4-fluorophenyl)butan-1-one]
Ki (S1R [1]; [5]): 6.1 ± 0.58 nM | SR subtype preference (S1R [1]): preference for the S1R subtype | S2R/S1R (S1R [1]): 25 | Ki (S2R [2]; read-out: Ki S2R): 153 ± 30.3 nM | S1R/S2R (S2R [2]): 0.04 | IC50 (SH-SY5Y): 58000 ± 7000 nM | IC50 (HUH-7): 37000 ± 6000 nM
